The NIST ThermoML archive (doi:10.1016/j.tca.2018.04.018)

How the values were obtained:
[1] = molar heat capacity at constant pressure; xn = mol fraction of the nth substance listed; details: Flow calorimetry
[2] = molar heat capacity at constant pressure; details: 3000 kPa, Flow calorimetry

CCCCC [pentane] + CC(C)=O
[1]
Details | molar heat capacity at constant pressure [J/K/mol]
423.14 K, 3900 kPa, Liquid, x1 = 0.25 | 170.75
423.14 K, 7920 kPa, Liquid, x1 = 0.5 | 179.32
423.15 K, 2000 kPa, Liquid, x1 = 0.25 | 174.5
423.15 K, 2900 kPa, Liquid, x1 = 0.5 | 194.43
423.15 K, 4000 kPa, Liquid, x1 = 0.5 | 190.78
423.15 K, 6000 kPa, Liquid, x1 = 0.25 | 171.36
423.15 K, 6050 kPa, Liquid, x1 = 0.5 | 184.14
423.15 K, 7960 kPa, Liquid, x1 = 0.25 | 163.97
423.16 K, 1080 kPa, Gas, x1 = 0.5 | 145.86
423.16 K, 2300 kPa, Liquid, x1 = 0.25 | 175.12
423.17 K, 1080 kPa, Gas, x1 = 0.25 | 135.14
483.14 K, 2960 kPa, Gas, x1 = 0.5 | 180.5
483.14 K, 4000 kPa, Gas, x1 = 0.5 | 283.18
483.15 K, 4480 kPa, Fluid (supercritical or subcritical phases), x1 = 0.5 | 750.83
483.15 K, 7050 kPa, Fluid (supercritical or subcritical phases), x1 = 0.5 | 233.69
483.15 K, 8160 kPa, Fluid (supercritical or subcritical phases), x1 = 0.5 | 218.13
483.16 K, 5000 kPa, Fluid (supercritical or subcritical phases), x1 = 0.5 | 446.03
483.16 K, 6100 kPa, Fluid (supercritical or subcritical phases), x1 = 0.5 | 260.13
493.15 K, 3860 kPa, Gas, x1 = 0.25 | 221.56
493.15 K, 4530 kPa, Fluid (supercritical or subcritical phases), x1 = 0.25 | 611.96
493.15 K, 4742 kPa, Fluid (supercritical or subcritical phases), x1 = 0.25 | 1236.9
493.15 K, 7920 kPa, Fluid (supercritical or subcritical phases), x1 = 0.25 | 214.05
493.16 K, 3140 kPa, Gas, x1 = 0.25 | 173.64
493.16 K, 6000 kPa, Fluid (supercritical or subcritical phases), x1 = 0.25 | 263.45
503.14 K, 3200 kPa, Gas, x1 = 0.25 | 167.97
503.14 K, 4120 kPa, Gas, x1 = 0.25 | 214.42
503.15 K, 6180 kPa, Fluid (supercritical or subcritical phases), x1 = 0.25 | 330.59
503.15 K, 7820 kPa, Fluid (supercritical or subcritical phases), x1 = 0.25 | 229.45
503.16 K, 5400 kPa, Fluid (supercritical or subcritical phases), x1 = 0.25 | 600.07
508.15 K, 2980 kPa, Gas, x1 = 0.5 | 175.81
508.15 K, 4060 kPa, Gas, x1 = 0.5 | 200.68
508.15 K, 6050 kPa, Fluid (supercritical or subcritical phases), x1 = 0.5 | 360.73
508.15 K, 6930 kPa, Fluid (supercritical or subcritical phases), x1 = 0.5 | 310.98
508.15 K, 8010 kPa, Fluid (supercritical or subcritical phases), x1 = 0.5 | 261.37
508.16 K, 5030 kPa, Fluid (supercritical or subcritical phases), x1 = 0.5 | 258.63

O [water]
[2]
Details | molar heat capacity at constant pressure [J/K/mol]
330.2 K, Liquid | 75.29
340.1 K, Liquid | 75.41
358.4 K, Liquid | 75.61
368.2 K, Liquid | 75.61
378.6 K, Liquid | 75.99
388.4 K, Liquid | 76.49
398.5 K, Liquid | 76.51
408.6 K, Liquid | 77.48
418.8 K, Liquid | 76.93
428.6 K, Liquid | 77.72
438.5 K, Liquid | 78.11
448.2 K, Liquid | 78.91
458.5 K, Liquid | 79.41
468.2 K, Liquid | 80.92
478.2 K, Liquid | 81.81
488.7 K, Liquid | 83.32
498.1 K, Liquid | 83.92
508.4 K, Gas | 63.31
